Measurements from patent publication US20130040937A1, “INHIBITORS FOR TREATING AND PREVENTING HEART FAILURE IN FELINES” (BOEHRINGER INGELHEIM VETMEDICA GMBH, priority 2011, published 2013).
Where two headings read alike, the source gives them in different places.

Experiments:
[1] = tested on: cats suffering from HF due to HCM; assay: Blinded, controlled, randomised efficacy field study in HCM cats; format: in vivo; set-up: key to Right heart enlargement (score): Score 1: normal size; Score 2: mild enlargement; Score 3: moderate enlargement; Score 4: severe enlargement; details: HCM cat; for Right heart enlargement (score): X-ray
Description: A blinded, controlled, randomised, efficacy field study was conducted with HCM cats receiving cilobradine (initial dose: 0.2 mg/kg po. twice daily) or a placebo (dose: 0.0 mg/kg po. twice daily) for 85 days. The dose of cilobradine could be adjusted during the study (dose range 0.1-0.5 mg/kg per-oral twice daily). The administration of furosemide was allowed in both groups. All cats were hospitalised in the first week of the study (study days 1-6), and they were allowed to go home afterwards (study days 7-85).
Cats with a diagnosis of HCM were included in the study. The diagnosis of HCM was established by using echocardiography showing global, regional or segmental thickness of the interventricular septum and/or left ventricular free-wall in diastole greater than 6 mm. Further inclusion criteria were: systolic blood pressure less than 170 mmHg; serum thyroxine (T4) was normal; and body weight was higher than 2 kg.
The owner provided a signed informed consent for the animal to enter the study. Cats that suffered from heart disease were scored using a 4 point score adapted from the ISACHC as follows: • Score 1: presence of heart disease associated with no clinical signs but detectable (e,g, auscultation, echocardiography and radiography); • Score 2: clinical signs of heart failure evident and adversely affect the quality of life. Typical signs include dyspnea/tachypnea, pulmonary congestion, weakness/lethargy, anorexia, exercise intolerance; • Score 3: clinical signs of advance heart failure immediately obvious. These clinical signs could have included respiratory distress, marked ascites/pulmonary congestion, profound exercise intolerance or hypoperfusion at rest; and • Score 4: severe cases: subject was moribund, suffered from cardiogenic shock or acute posterior paresis/paralysis. Hospitalization was mandatory.
Cats having one or more of the following criteria were excluded: • a) The cat had received one or more of the following pretreatments: calcium channel blockers, e.g. diltiazem, angiotensin converting enzyme inhibitors, f3-blockers, acetylsalicylic acid, or digitales glycosides. (Cats pre-treated with furosemide alone were allowed to be included in either of the groups if they matched all inclusion criteria above.) • b) Elevated serum T4 level; • c) Elevated serum blood urea nitrogen (BUN) levels higher than 90 mg/dL or elevated serum creatinine levels higher than 3 mg/dL; • d) Systolic arterial blood pressure greater than or equal to 170 mmHg; • e) Dilated cardiomyopathy (DCM); • f) Suffered from heart disease with a score of 4 (adapted ISACHC score) or with no documented episode of heart failure (score 2 or 3) within 30 days before enrollment; • g) Fixed aortic stenosis; • h) Were pregnant or lactating queens; • i) Were nursing kittens; • j) Body weight less than 2 kg; or • k) Presence of sinus bradycardia (heart rate less than 120 bpm at consultation).
The cat's quality of life was assessed on a daily basis using the following grading system: 1 (better), 2 (equal), 3 (worse).
Furthermore, right heart enlargement was assessed by X-ray using the following scoring system: Score 1: normal size; Score 2: mild enlargement; Score 3: moderate enlargement; and Score 4: severe enlargement. Mild enlargement of the right side of the heart was observed using X-ray in the cat receiving a placebo at the end of the study. In contrast, the right side of the heart was normal in the cat receiving cilobradine throughout the study (see Table 10).

[2] = Pharmacokinetics in healthy human male subjects, once daily po. for 7 days; format: in vivo
Description: (§1) Cilobradine chloride salt was administered at a dose of 5, 10 and 20 mg per subject in the form of capsules. These doses are equal to 0.07, 0.14, and 0.28 mg/kg cilobradine chloride salt assuming a body weight of 70 kg. […] Cilobradine hydrochloride was administered at a dose of 0.1 mg/kg and 0.3 mg/kg as a suspension. […] There are some differences between cats and humans in terms of pharmacokinetics of cilobradine, which might be related to differences in absorption, metabolisation, distribution, or excretion.

[3] = Pharmacokinetics in healthy cats, once daily po. for 4 days; format: in vivo; details: cat
Description: as §1

heart rate [4] = assay: Heart rate after oral administration in humans; format: in vivo, human; details: over 9 h following administration, 5, 10, 20 mg per subject
Description: as §1

heart rate [5] = assay: Pharmacodynamic profile (telemetric heart rate) in the conscious cat; format: in vivo
Description: as §1
The pharmacodynamic profile of cilobradine hydrochloride was characterised at two dose levels administered by the oral route, once and twice daily, in the conscious cat. The study involved 2 groups of 3 male European Short Hair cats weighing between 4.15 kg and 4.75 kg on the day of the first treatment. Each cat was dosed with cilobradine hydrochloride once (sid) and twice (bid) daily successively at 0.1 or 0.3 mg/kg in a cross over-design. Each treatment was separated by an interval of 24 hours (sid) or 12 hours (bid). A washout period of 7 days was scheduled between the 2 dosing periods. Cats were previously instrumented with telemetric transmitters for heart rate measurements. Telemetric measurements were recorded for 15 seconds every 5 minutes at a sampling rate of 500 Hz on D-2, D-1, from D0 up to D9 and from D16 up to D25 except for D4 and D20 during blood sampling.

healthy cats = assay: Effects on vasomotor tone, myocardial contractility and lusitropy in healthy cats; format: in vivo, cat; details: therapeutically relevant doses
From the text: “Funny If current inhibitors”, also referred to as “If channel blockers” or “If current inhibitors” herein, relate to If inhibitors including pharmaceutically acceptable salts thereof, which selectively block hyperpolarization-activated cyclic nucleotide-gated channels (HCN) in cardiac conductive tissue, channels responsible for the transmembrane current known as If. It is through blockade of this current that If channel blockers are assumed to produce their specific bradycardic effect. HCN channels are widely distributed in the nervous system and in the eye they mediate the current known as Ih. The effect of zatebradine and cilobradine on the Ih channel has also been investigated (See Neuroscience, Vol. 59(2), pp. 363-373, 1994 for zatebradine, and British Journal of Pharmacology, Vol. 125, pp. 741-750, 1998 for cilobradine). […] Cilobradine in particular reduces the heart rate in the sinoatrial node of the heart by selective blockade of If channels (“funny channels”) through a direct interaction with predominantly HCN4 channels. This blockage is potent and has a dosage and voltage dependency. Because of the high selectivity to the If current, effects on vasomotor tone or myocardial contractility and lusitropy are not observed at therapeutically relevant doses in healthy cats. […]

Ih channel = details: literature (Neuroscience 1994; Br J Pharmacol 1998); cited from earlier work
[6] = tested on: left atrial systolic and global function; details: feline CMP; cited from earlier work
Lipophilicity profile = format: physicochemical; details: neutral pH versus acidic pH
From the text: Usually, EC/HPMC films show a sustained release behaviour that is independent of pH. […] This profile, together with the coating applied, may have led to a slower release.

[7] = tested on: healthy cats and cats with hypertrophic cardiomyopathy; details: cited from earlier work

## COc1ccc(CCN2CCC[C@H](CN3CCc4cc(OC)c(OC)cc4CC3=O)C2)cc1OC [Cilobradine, (+)-3-[(N-(2-(3,4-dimethoxy-phenyl)ethyl)-piperidin-3-(S)-yl)-methyl]-(7,8-dimethoxy-1,3,4,5-tetrahydro-2H-3-benzazepin-2-on)]
[1]
  reduction of the interventricular septal thickness in systole compared to placebo: considerably greater
[1]; SD 0 (baseline)
  Interventricular septal thickness in systole: 11.7 mm
  Right heart enlargement (score): 1
[1]; SD 0 (baseline), initial dose 0.2 mg/kg po. twice daily
  Heart rate: 152 beats per minutes
[1]; SD 7
  Heart rate: 120 beats per minutes
[1]; SD 28
  Heart rate: 144 beats per minutes
[1]; SD 56
  Heart rate: 124 beats per minutes
[1]; SD 84
  Heart rate: 210 beats per minutes
  Interventricular septal thickness in systole: 7.5 mm
  Right heart enlargement (score): 1
[1]; daily owner grading 1 (better), 2 (equal), 3 (worse), FIG. 1
  quality of life: almost continuous improvement
[1]; study period, versus placebo cat
  heart rate (in words): reduced throughout the study
[1]; throughout the study
  right side of the heart (X-ray): normal
[2]; in vivo, healthy human male subjects, once daily po. for 7 days, 5-20 mg per subject, read-out: half-life
  Half-life: 10.1 to 13.9 h
[3]; in vivo, healthy cats, once daily po. for 4 days, 0.1 and 0.3 mg/kg, read-out: half-life
  Half-life: 2.53 to 3.52 h
Heart rate [4]
  heart rate reduction: dose dependent heart rate reduction
Heart rate [5]; cats, over 9 h following administration, 0.1 and 0.3 mg/kg
  heart rate reduction: dose dependent heart rate reduction
Healthy cats
  effects on vasomotor tone or myocardial contractility and lusitropy: not observed
Ih channel
  block of Ih: can also be blocked

## CC(C)NCC(O)COc1ccc(CC(N)=O)cc1 (stereo not shown) [atenolol]
[6]
  left atrial systolic and global function: significantly decreased

## COc1ccc(CCN2CCC[C@H](CN3CCc4cc(OC)c(OC)cc4CC3=O)C2)cc1OC.Cl [cilobradine hydrochloride]
[2]; human, 5 mg/subject (0.07 mg/kg), capsules, once daily po. 7 days
  Half-life: 13.9 h
[2]; human, 10 mg/subject (0.14 mg/kg), capsules, once daily po. 7 days
  Half-life: 13.0 h
[2]; human, 20 mg/subject (0.28 mg/kg), capsules, once daily po. 7 days
  Half-life: 10.1 h
[3]; 0.1 mg/kg, suspension, once daily po. 4 days
  Half-life: 3.52 h
[3]; 0.3 mg/kg, suspension, once daily po. 4 days
  Half-life: 2.53 h
Heart rate [5]; conscious cat, oral 0.1 and 0.3 mg/kg per day, sid and bid
  bradycardia: dose-dependent bradycardia
Lipophilicity profile
  lipophilicity profile: slightly more lipophilic at neutral pH values

## COc1cc2c(cc1OC)CC(=O)N(CCCN(C)C[C@H]1Cc3cc(OC)c(OC)cc31)CC2 [ivabradine, 3-[3-[[[(7S)-3,4-dimethoxybicyclo[4.2.0]octa-1,3,5-trien-7-yl]methyl]methylamino]propyl]-1,3,4,5-tetrahydro-7,8-dimethoxy-2H-3-benzazepin-2-one]
[7]; healthy cats
  heart rate reduction: significant heart rate reduction
  negative chronotropic effect, dose relation: dose-dependency
[7]; subclinical HCM cats
  heart rate reduction: significant heart rate reduction

## COc1ccc(CCN(C)CCCN2CCc3cc(OC)c(OC)cc3CC2=O)cc1OC [zatebradine, reference compound]
Ih channel
  block of Ih: can also be blocked
